Measurements taken from patent US6555370B1, “Bifunctional selectable fusion genes” (Immunex Corporation, priority 1990, dated 2003).
Entries after “also recorded” stand apart in the source; their conditions may differ.

Key:
[1] = system: murine sarcoma (K3T3); conditions: syngeneic mice; Moolten and Wells 1990; cited from earlier work
[2] = system: NIH/3T3 cells; assay: Long-term cell proliferation assay for GCV sensitivity (colony formation); format: cell-based
Procedure: Uninfected NIH/3T3 cells and the infected NIH/3T3 cell pools were plated at relatively low cell density (10^4 cells/[…]) in complete growth medium and allowed to attach for 4 hours. The medium was then supplemented with hygromycin B (500 μg/ml), with or without 1 μM GCV, and the cells incubated for a period of 10 days. The medium was then removed and the cells were fixed in situ with 100% methanol and stained with methylene blue. […] Colonies of cells resistant to both Hm and GCV were obtained at a low frequency (10^−4-10^−3) from the retrovirus-infected populations (FIG. 6, plates e and g). The proviruses present in the cells that gave rise to these colonies had likely suffered point mutations, or very small deletions or rearrangements in the HSV-I TK moiety which eliminated the ability to phosphorylate GCV. Similar results were also obtained with Rat-2 cell lines infected with tgLS(+)HyTK or with tgLS(−)CMV/HyTK (data not shown).

[3] = system: cells expressing the HSV-I TK gene; conditions: cited from earlier work
[4] = system: transfected NIH/3T3 cells; assay: Short term cell proliferation assay for GCV sensitivity; format: cell-based
Procedure: (§1) C. Negative Selection of Cells Containing the HyTK (SEQ ID NO:1 Selectable Fusion Gene. To investigate the utility of the HyTK (SEQ ID NO:1 selectable fusion gene for negative selection, the colonies resulting from each transfection (Table 1) were pooled and expanded into cell lines for further analysis. The Hm^r NIH/3T3 cell pools and the Hm^r and HAT^r Rat-2 cell pools were tested for GCV^s in a short term cell proliferation assay as follows.
(§2) The transfected NIH/3T3 and Rat-2 cells (3×10^4 of each) were seeded into 9-cm tissue culture dishes in complete growth medium, and allowed to attach for 4 hours. The medium was then supplemented with various concentrations of GCV (Syntex, Palo Alto, Calif.), and the cells incubated for an additional 60 hours. At this time, the medium was removed, the attached cells were harvested by trypsinization and stained with trypan blue, and the viable cells were counted. Cell growth was expressed as a fraction of the cell growth observed in the absence of GCV. The results shown are the average of triplicate assays.

[5] = system: transfected Rat-2 cells; assay: as above; format: cell-based
Procedure: as §1, §2

[6] = system: NIH/3T3 cells; assay: Long-term proliferation assay for 5-FC sensitivity; format: cell-based; conditions: 10-14 days
Procedure: C. Negative Selection of Cells Containing the CD-neo (SEQ ID NO:3 Selectable Fusion Gene. To investigate the utility of the neo and CD-neo (SEQ ID NO:3 selectable fusion genes for negative selection, the colonies resulting from each transfection were pooled and expanded into cell lines for further analysis. The NIH/3T3 cells, or NIH/3T3 cells infected with the tgLS(+)neo or tgLS(+)CD-neo retroviruses were assayed for 5-FC^s using a long-term proliferation assay.
First, 1×10^4 cells were seeded into 10 cm tissue culture dishes in complete growth medium and allowed to attach for 4 hours. The medium was then supplemented with various concentrations of G-418 and/or 5-FC (Sigma), after which the cells were incubated for a further 10-14 days. The medium was replaced every 2-4 days. The cells were then fixed in situ with 100% methanol and stained with methylene blue.

[7] = NIH/3T3 cells infected with tgLS(+)CD-neo, 800 μg/ml G-418, 100 μg/ml 5-FC
[8] = NIH/3T3 cells infected with tgLS(+)neo, 800 μg/ml G-418, 100 μg/ml 5-FC
[9] = uninfected NIH/3T3 cells, 800 μg/ml G-418 or 100 μg/ml 5-FC

## Nc1nc(O)c2ncn(COC(CO)CO)c2n1 [GCV, ganciclovir]
[1]
  Eradication of tumors induced by the sarcoma cells: completely eradicated
[2]; NIH/3T3 cell pools infected with tgLS(+)HyTK or tgLS(−)CMV/HyTK, 500 μg/ml hygromycin B plus 1 μM GCV, 10 days
  Growth as measured by colony formation: almost completely inhibited
[2]; cells infected with HyTK retroviral vectors
  Infected cells killed by GCV: > 99.9%
[2]; retrovirus-infected NIH/3T3 populations, 500 μg/ml Hm plus 1 μM GCV
  Frequency of colonies resistant to both Hm and GCV: 10^−4-10^−3
[2]; uninfected NIH/3T3, 1 μM GCV, 10 days
  Growth of uninfected cells in GCV: resistant
[3]; same transgenic mice, Moolten et al. 1990
  Regression of Abelson leukemia virus-induced lymphomas: full regression
[3]; transgenic animals, Heyman et al. 1989
  Ablation of cells expressing the HSV-I TK gene: selective ablation
[4]; Mus musculus, NIH3T3, NIH/3T3 cells transfected with tgCMV/HyTK, 1 μM GCV, 60 hours, read-out: Degree of inhibition of cell growth
  inhibition at 1 µM: ~100%
[4]; NIH/3T3 cells transfected with tgCMV/HyTK
  Effect of GCV on cell growth: inhibits growth
[4]; NIH/3T3 cells transfected with tgCMV/hygro, 0.03 μM-1.0 μM GCV
  Effect of GCV on cell growth: does not inhibit growth; also recorded: not adversely affected
[5]; Rat-2, both Hm^r and HAT^r selected pools
  Sensitivity to GCV of Rat-2 cell pools transfected with tgCMV/HyTK relative to Rat-2 cells transfected with tgCMV/TK: over 30 fold
[5]; Rat-2 cells transfected with tgCMV/HyTK (selected for Hm^r or HAT^r), lowest concentration 0.03 μM GCV
  Effect of GCV on cell growth: inhibits growth; also recorded: almost completely inhibited
[5]; Rat-2 cells transfected with tgCMV/TK, higher concentrations required than for tgCMV/HyTK cells
  Effect of GCV on cell growth: inhibits growth; also recorded: inhibited
[5]; Rat-2 cells transfected with tgCMV/hygro, 0.03 μM-1.0 μM GCV
  Effect of GCV on cell growth: did not inhibit growth; also recorded: not inhibited

## CN[C@H]1C[C@@H](N)[C@H](O)[C@@H](O[C@@H]2O[C@H](CO)[C@H](O)[C@@H]3OC4(O[C@H]23)O[C@H]([C@@H](N)CO)[C@H](O)[C@H](O)[C@H]4O)[C@@H]1O (stereo partly drawn) [Hm, hygromycin B]
[2]; uninfected NIH/3T3, 500 μg/ml Hm, 10 days
  Growth of uninfected cells in Hm: completely killed

## Nc1nc(=O)[nH]cc1F [5-FC, 5-fluorocytosine]
[6]; [7]
  Sensitivity or resistance of cells to the drug: sensitive
[6]; [8]
  Sensitivity or resistance of cells to the drug: resistant
[6]; [9]
  Sensitivity or resistance of cells to the drug: resistant

## CN[C@@H]1[C@@H](O)[C@@H](O[C@@H]2[C@@H](O)[C@H](O[C@H]3O[C@H]([C@@H](C)O)[C@@H](O)[C@H](O)[C@H]3N)[C@@H](N)C[C@H]2N)OC[C@]1(C)O [G-418]
[6]; [7]
  Sensitivity or resistance of cells to the drug: resistant
[6]; [8]
  Sensitivity or resistance of cells to the drug: resistant
[6]; [9]
  Sensitivity or resistance of cells to the drug: sensitive
